Reference: patent US20220220106A1, “QUINOLINE COMPOUNDS AND PHARMACEUTICAL COMPOSITIONS AND USES THEREOF” (Academy of Military Medical Sciences, priority 2019, published 2022)

Columns and labels:
mTORC2 = molecular target: T1, mTORC2 (Homo sapiens, UniProt P42345); experiment: Western blot, phosphorylation of Ser473 of Akt in RD cells (mTORC2 inhibition); format: cell-based; details: 20 μM, 2 hours, Western blot (FIG. 1)
T1 construct: endogenous in cells; host or cells: RD cells
Experimental: In order to test the inhibitory activity of the synthesized compounds on the two mTOR complexes, the inhibitory activity experiments of mTORC1 and mTORC2 were carried out. Since mTORC1 and mTORC2 exerted their function by activating the phosphorylation of downstream substrates, the inhibitory activity of the compounds on mTORC1 and mTORC2 could be determined by detecting the phosphorylation levels of the Thr389 site of mTORC1 downstream substrate p70S6K1 and the Ser473 site of mTORC2 downstream substrate Akt.
Pretreatment of Compound:
(1) RD cells were cultured in DMEM medium containing 10% FBS and 1×PS (penicillin and streptomycin were at concentrations 100 IU and 100 μg/mL, respectively) at 37° C. and 5% CO2.
(2) The RD cells (5×10^5 cells/2 mL medium) were inoculated into a 6-well plate and incubated at 37° C. and 5% CO2 for 24 hours.
(3) The cells were washed once with PBS, and the cells were cultured in serum-free medium without nutrients overnight.
(4) Formulation of compounds: […]
Preparation of insulin medium: Insulin was diluted in DMEM medium containing 10% FBS and 1×PS so that the final concentration of insulin was 167 nM.
Pretreatment of compound to be tested: The compound was dissolved in DMSO so that the concentration of the test compound was 20 mM, and the compound was diluted in 167 nM insulin medium to reach a concentration of 20 μM.
Preparation of rapamycin solution: Rapamycin was dissolved in DMSO to a concentration of 10 mM, and the rapamycin was diluted in 167 nM insulin medium to reach a concentration of 20 μM.
(5) The serum-free medium in each well was removed.
(6) 2 mL of complete medium containing DMSO was added to each well as a control carrier. The final concentration of DMSO was 0.2%.
(7) 2 mL of 20 μM rapamycin solution and 20 μM the compound to be tested were added to the designated wells, respectively. The final concentration of DMSO was 0.2%.
(8) The cells were incubated for 2 hours at 37° C. and 5% CO2.
Protein extraction and concentration determination:
(1) The cells were washed once with refrigerated PBS, and then the PBS was discarded.
(2) 150 μL of cell extraction buffer (RIPA, […], catalog number: C1053) was transferred into each well to lyse the cells, and then the resulting cell solution were incubated on ice for 30 minutes.
(3) Centrifugation was performed at 14000 rpm (13000× g) for 30 minutes at 4° C.
(4) The supernatant was transferred into a new eppendorf tube, and the cell lysate was stored at −80° C. before testing.
(5) The protein concentration was determined by BCA method.
Preparation of Buffer Solutions:
(1) 100× Protease inhibitor (Beyotime, catalog number: P1005): 1 mL of redistilled water was added to the protease inhibitor and stirred gently until the solid was completely dissolved.
(2) Lysis Buffer: […] of 100× protease inhibitor and 2× phosphatase inhibitor Cocktails PhosSTOP (Beyotime, catalog number: P1082) were added to 100 mL of the cell extract, and stirred gently until it was completely dissolved.
(3) Electrophoresis Running Buffer:
10×MOPS buffer: 52.33 g of MOPS, 30.29 g of Tris base, 10 mL of 0.5 mol/L EDTA (pH 8.5) and 5 g of SDS was dissolved in 400 mL of redistilled water, stirred to dissolve, and the pH was adjusted to 7.5, then redistilled water was added again to reach a volume of 500 mL; 1×MOPS: 100 mL of 10×MOPS was diluted with redistilled water to 1000 mL.
(4) 1× Transfer Buffer: […] of 10× transfer buffer (144 g of glucine, 30.3 g of trisbase, and distilled water were mixed to reach a volume of 1 L) and 400 mL of methanol were dissolved in 1500 mL of redistilled water, and then the redistilled water was added to reach a volume of 2000 mL. […]

mTOR kinase = molecular target: T2, mTOR kinase (Homo sapiens, UniProt P42345); experiment: In vitro inhibitory activity on mTOR kinase (TR-FRET, GFP-4E-BP1 substrate); format: biochemical; details: for IC50: 0.5 μg/mL mTOR, 0.4 μM GFP-4E-BP1, 3 μM ATP
T2 construct: purchased Thermo Fisher PV4753
Experimental: Preparation of Reaction Buffers:
Basic buffer composition: 50 mM (mmol/L) HEPES (pH 7.5), 1 mM EGTA, 0.01% Tween-20, 10 mM MnCl2, 2 mM DTT (diluted from 500 mM before used).
(2) mTOR kinase buffer solution: 1650 μL of 2.5×mTOR kinase buffer solution was composed of 1640.2 μL of 1× basic buffer and 9.8 μL of mTOR (0.21 mg/mL stock solution), and the final concentration was 0.5 μg/mL.
(3) Detection buffer solution: 3960 μL of 2× detection buffer solution was composed of 3797.1 μL of TR-FRET buffer diluent (purchased from Thermo Fisher, catalog number: PV3574), 4.5 μL of Tb-anti-p4E-BP1 antibody (3.49 μM stock solution, purchased from Thermo Fisher, catalog number: PV4757) and 158 μL of EDTA (500 mM stock solution), and the final concentrations were 2 nM Tb-anti-p4E-BP1 antibody and 10 mM EDTA.
(1) 20 μL of 100% DMSO solution containing 5 mM compound to be tested was added to a 96-well plate.
(2) The compound was serially diluted 3 times in DMSO.
(3) 1 μL of the compound in the previous step was taken, diluted with 19 μL of mTOR kinase buffer, and transferred to another 96-well plate.
(4) 4 μL of mTOR kinase solution (purchased from Thermo Fisher, catalog number: PV4753) was added to a 384-well plate.
(5) 2 μL of the compound in G was taken out and added to the 384-well plate with mTOR kinase, and incubated at room temperature for 15 minutes.
(6) 4 μL of substrate solution was added to initiate the reaction.
The final concentrations of mTOR reaction solution were: 0.5 μg/mL mTOR, 0.4 μM GFP-4E-BP1, 3 μM ATP.
The final concentration of the DMSO solution was 1%.
(7) Incubation was performed for 60 minutes at room temperature.
(8) 10 μL of detection buffer was added. The final concentrations were 2 nM Tb-anti-p4E-BP1 antibody and 10 mM EDTA.
(9) Incubation was performed for 30 minutes at room temperature.
(10) TR-FRET value was read on MD5 multi-mode plate reader (Molecular Devices). The excitation wavelength was 340 nm, the emission wavelength 1 was 495 nm, and the emission wavelength 2 was 520 nm. The ratio of 520 nm/495 nm readings was calculated as TR-FRET value.
IC50 of compound was fitted by nonlinear regression equation:
Y=Bottom+(Top-Bottom)/(1+10^((LogIC50-X)*HillSlope));
X: common logarithm value of compound concentration; Y: TR-FRET value (520 nm/495 nm).

Compound	phosphorylation expression level of Akt (mTORC2)	IC50 (mTOR kinase) [nM]	inhibitory activity on mTOR kinase, in words (mTOR kinase)
O=C(Nc1ccc(-c2ccc3ncc4ccc(=O)n(-c5cccc(C(F)(F)F)c5)c4c3c2)cn1)Oc1ccccc1 [HTL-7-15, 9-[3-(6-phenoxyamido)pyridyl]-2-oxo-1-[3-(trifluoromethyl)phenyl]-1,2-dihydrobenzo[h][1,6]naphthyridine]	significantly down-regulate	25	–
O=c1ccc2cnc3ccc(-c4ccc(N5CCOCC5)nc4)cc3c2n1-c1cccc(C(F)(F)F)c1 [HTL-7-18, 9-[3-(6-morpholin-4-yl)pyridyl]-2-oxo-1-[3-(trifluoromethyl)phenyl]-1,2-dihydrobenzo[h][1,6]naphthyridine]	significantly down-regulate	22.7	–
COc1ccc(CC(=O)Nc2ccc(-c3ccc4ncc5ccc(=O)n(-c6cccc(C(F)(F)F)c6)c5c4c3)cn2)cc1 [HTL-7-11, 9-{3-[6-(4-methoxy)phenylacetylamino]pyridyl}-2-oxo-1-[3-(trifluoromethyl)phenyl]-1,2-dihydrobenzo[h][1,6]naphthyridine]	significantly down-regulate	32.5	–
CCCCC(=O)Nc1ccc(-c2ccc3ncc4ccc(=O)n(-c5cccc(C(F)(F)F)c5)c4c3c2)cn1 [HTL-7-08, 9-[3-(6-valerylamino)pyridyl]-2-oxo-1-[3-(trifluoromethyl)phenyl]-1,2-dihydrobenzo[h][1,6]naphthyridine]	significantly down-regulate	76.6	–
CCC(=O)Nc1ccc(-c2ccc3ncc4ccc(=O)n(-c5cccc(C(F)(F)F)c5)c4c3c2)cn1 [HTL-6-45, 9-[3-(6-propionylamino)pyridyl]-2-oxo-1-[3-(trifluoromethyl)phenyl]-1,2-dihydrobenzo[h][1,6]naphthyridine]	significantly down-regulate	29.2	–
COc1cc(-c2ccc3ncc4ccc(=O)n(-c5cccc(C(F)(F)F)c5)c4c3c2)cnc1N [HTL-7-19, 9-[3-(6-amino-5-methoxy)pyridyl]-2-oxo-1-[3-(trifluoromethyl)phenyl]-1,2-dihydrobenzo[h][1,6]naphthyridine]	significantly down-regulate	7.58	excellent inhibitory activity
O=C1Cc2cc(-c3ccc4ncc5ccc(=O)n(-c6cccc(C(F)(F)F)c6)c5c4c3)ccc2N1 [HTL-7-04, 9-[5-(2-oxo)indolyl]-2-oxo-1-[3-(trifluoromethyl)phenyl]-1,2-dihydrobenzo[h][1,6]naphthyridine]	significantly down-regulate	240	moderate inhibitory activity
Nc1cccc(Nc2ccc3ncc4ccc(=O)n(-c5cccc(C(F)(F)F)c5)c4c3c2)c1 [HTL-6-11, 9-(3-aminophenyl)imino-2-oxo-1-[3-(trifluoromethyl)phenyl]-1,2-dihydrobenzo[h][1,6]naphthyridine]	significantly down-regulate	255	moderate inhibitory activity
CN(C)c1ccc(-c2ccc3ncc4ccc(=O)n(-c5cccc(C(F)(F)F)c5)c4c3c2)cn1 [HTL-7-16, 9-[3-(6-N,N-dimethyl)pyridyl]-2-oxo-1-[3-(trifluoromethyl)phenyl]-1,2-dihydrobenzo[h][1,6]naphthyridine]	significantly down-regulate	8.91	excellent inhibitory activity
O=c1ccc2cnc3ccc(C4=CCC5(CC4)OCCO5)cc3c2n1-c1cccc(C(F)(F)F)c1 [HTL-7-13, 9-(1,4-dioxa-spiro[4.5]dec-7-en-8-yl)-2-oxo-1-[3-(trifluoromethyl)phenyl]-1,2-dihydrobenzo[h][1,6]naphthyridine]	significantly down-regulate	86.1	–
O=C(Nc1ccc(-c2ccc3ncc4ccc(=O)n(-c5cccc(C(F)(F)F)c5)c4c3c2)cn1)OCc1ccccc1 [HTL-7-14, 9-[3-(6-benzyloxyamido)pyridyl]-2-oxo-1-[3-(trifluoromethyl)phenyl]-1,2-dihydrobenzo[h][1,6]naphthyridine]	significantly down-regulate	306	moderate inhibitory activity
O=c1ccc2cnc3ccc(-c4ccc(F)nc4)cc3c2n1-c1cccc(C(F)(F)F)c1 [HTL-7-01, 9-[3-(6-fluoro)pyridyl]-2-oxo-1-[3-(trifluoromethyl)phenyl]-1,2-dihydrobenzo[h][1,6]naphthyridine]	significantly down-regulate	28.8	–
